Data taken from patent publication US12304910B2, “Janus kinase (JAK) family inhibitor, preparation of same, and applications thereof” (JIANGSU VCARE PHARMATECH CO., LTD., priority 2019, dated 2025).

How the values were obtained:
JAK2 = JAK2 (Homo sapiens, UniProt O60674); experiment: Kinase activity test (γ33P-ATP isotopic method), JAK2; format: biochemical; details: 33P-ATP 10 μM, 2 h reaction
Protocol: (§1) This experiment adopted a γ^33p-ATP isotopic test method to test the inhibitory effect of a compound on kinases JAK1, JAK2, JAK3 and TYK2, and obtained a half inhibitory concentration IC50 of the compound for inhibiting activity of the kinase.
(§2) 20 mM 4-hydroxyethylpiperazine ethanesulfonic acid buffer (Hepes, pH 7.5), 10 mM magnesium chloride (MgCl2), 1 mM ethylene glycol diethyl ether diamine tetraacetic acid (EGTA), 0.02% dodecyl polyethylene glycol ether (Brij35), 0.02 mg/ml bovine serum albumin (BSA), 0.1 mM sodium vanadate (Na3VO4), 2 mM dithiothreitol (DTT), and 1% dimethylsulfoxide (DMSO).
(§3) A compound is dissolved with 100% DMSO to a specific concentration, and then subjected to gradient dilution by an automatic sampling device to obtain the samples to be tested with different concentrations (DMSO solutions).
(§4) 3.1 diluting the reaction substrate with the basic reaction buffer;
(§5) 3.2 adding the kinase into the substrate solution, and gently mixing well;
(§6) 3.3 adding, by the automatic sampling system, the 100% DMSO diluted compounds with different concentrations into the kinase solution, and incubating for 20 min at room temperature; and
(§7) 3.4 adding ^33p-ATP (10 μM, 10 μCi/μl) at room temperature to initiate the kinase reaction for a duration of 2 h.
(§8) The unreacted ATP and the reaction-generated […] in the reaction were removed by an ion exchange filtering system, and then the amount of radioactivity of ^33p isotope in the substrate was detected.
(§9) According to the amount of radioactivity, the kinase activities in the systems added with the inhibitors of different concentrations were calculated, to obtain the inhibitors' effects of the compounds of different concentrations on the kinase activity; and fitting was performed with graphpad prism to obtain the inhibitory IC50 values of the compounds.

JAK1 = JAK1 (Homo sapiens, UniProt P23458); experiment: Kinase activity test (γ33P-ATP isotopic method), JAK1; format: biochemical; details: for IC50: 33P-ATP 10 μM, 2 h reaction; for activity in inhibiting the JAK1 kinase compared with Tofacitinib (in words): conclusion from Table 1
Sequence of JAK1 (P23458 whole entry): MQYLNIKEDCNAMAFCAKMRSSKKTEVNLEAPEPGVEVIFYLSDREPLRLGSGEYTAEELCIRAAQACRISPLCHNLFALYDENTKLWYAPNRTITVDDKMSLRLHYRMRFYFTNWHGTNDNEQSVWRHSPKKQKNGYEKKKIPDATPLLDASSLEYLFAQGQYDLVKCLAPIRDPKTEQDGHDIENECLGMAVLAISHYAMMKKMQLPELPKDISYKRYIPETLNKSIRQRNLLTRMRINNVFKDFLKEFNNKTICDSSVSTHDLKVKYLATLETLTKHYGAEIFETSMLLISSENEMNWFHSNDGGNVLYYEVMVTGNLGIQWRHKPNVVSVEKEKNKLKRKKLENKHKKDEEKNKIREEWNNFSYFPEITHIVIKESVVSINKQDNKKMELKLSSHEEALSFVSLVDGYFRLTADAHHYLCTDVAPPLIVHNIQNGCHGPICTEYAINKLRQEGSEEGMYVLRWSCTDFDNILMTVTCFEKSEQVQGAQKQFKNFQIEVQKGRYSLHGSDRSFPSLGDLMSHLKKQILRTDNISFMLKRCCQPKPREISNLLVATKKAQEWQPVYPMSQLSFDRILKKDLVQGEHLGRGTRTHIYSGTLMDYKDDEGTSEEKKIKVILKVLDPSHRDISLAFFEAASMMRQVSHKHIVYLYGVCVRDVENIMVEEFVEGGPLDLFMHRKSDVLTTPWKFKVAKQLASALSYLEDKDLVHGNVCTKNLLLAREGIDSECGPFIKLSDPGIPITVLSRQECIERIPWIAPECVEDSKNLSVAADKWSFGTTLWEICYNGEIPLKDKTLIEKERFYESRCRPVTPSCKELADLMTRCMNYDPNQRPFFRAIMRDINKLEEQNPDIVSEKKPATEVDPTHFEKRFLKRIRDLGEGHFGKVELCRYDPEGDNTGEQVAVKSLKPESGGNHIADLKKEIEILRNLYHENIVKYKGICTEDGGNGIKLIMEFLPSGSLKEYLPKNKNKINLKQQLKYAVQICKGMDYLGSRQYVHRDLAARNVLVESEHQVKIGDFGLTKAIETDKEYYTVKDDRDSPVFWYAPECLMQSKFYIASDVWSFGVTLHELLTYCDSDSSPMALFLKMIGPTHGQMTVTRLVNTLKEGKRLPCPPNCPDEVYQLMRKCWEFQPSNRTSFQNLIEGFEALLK
Protocol: as §1, §2, §3, §4, §5, §6, §7, §8, §9

JAK3 = molecular target: T1, JAK3 (Homo sapiens, UniProt P52333); experiment: Kinase activity test (γ33P-ATP isotopic method), JAK3; format: biochemical; details: 33P-ATP 10 μM, 2 h reaction
T1 sequence (P52333 1-1124): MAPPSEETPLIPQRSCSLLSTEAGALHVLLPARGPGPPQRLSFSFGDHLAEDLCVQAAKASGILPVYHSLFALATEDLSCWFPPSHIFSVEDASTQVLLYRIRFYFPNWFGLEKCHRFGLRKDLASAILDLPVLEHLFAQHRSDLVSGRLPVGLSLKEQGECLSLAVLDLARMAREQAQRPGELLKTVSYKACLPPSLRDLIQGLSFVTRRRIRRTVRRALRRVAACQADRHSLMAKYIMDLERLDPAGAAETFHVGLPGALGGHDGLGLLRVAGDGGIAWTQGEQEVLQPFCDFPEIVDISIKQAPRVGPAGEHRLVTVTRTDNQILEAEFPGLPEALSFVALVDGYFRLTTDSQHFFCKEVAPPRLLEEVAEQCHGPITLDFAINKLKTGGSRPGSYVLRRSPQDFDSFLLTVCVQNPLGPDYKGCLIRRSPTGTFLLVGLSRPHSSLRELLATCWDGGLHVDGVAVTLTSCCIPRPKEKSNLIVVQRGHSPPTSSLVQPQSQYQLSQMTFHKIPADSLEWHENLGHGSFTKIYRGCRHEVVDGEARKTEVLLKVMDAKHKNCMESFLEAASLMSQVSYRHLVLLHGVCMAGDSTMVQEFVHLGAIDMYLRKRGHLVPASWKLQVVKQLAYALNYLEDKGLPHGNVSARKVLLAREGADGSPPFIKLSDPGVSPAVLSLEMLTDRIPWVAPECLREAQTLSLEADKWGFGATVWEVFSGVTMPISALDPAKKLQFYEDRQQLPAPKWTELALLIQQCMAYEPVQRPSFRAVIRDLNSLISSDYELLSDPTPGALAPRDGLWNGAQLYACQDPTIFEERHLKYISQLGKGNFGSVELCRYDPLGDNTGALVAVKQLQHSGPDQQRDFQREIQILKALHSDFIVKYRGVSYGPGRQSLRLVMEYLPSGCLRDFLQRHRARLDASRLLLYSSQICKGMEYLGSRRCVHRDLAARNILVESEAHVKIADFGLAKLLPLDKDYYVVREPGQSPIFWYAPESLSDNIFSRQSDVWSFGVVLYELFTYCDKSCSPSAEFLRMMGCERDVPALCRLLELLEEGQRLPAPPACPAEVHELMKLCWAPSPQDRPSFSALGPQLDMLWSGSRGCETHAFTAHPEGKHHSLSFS
Protocol: as §1, §2, §3, §4, §5, §6, §7, §8, §9

[1] = system: DNBS induced rat Crohn's disease model; experiment: Therapeutic activity in DNBS induced rat Crohn's disease model; format: in vivo; parameters: rat colon ulcer area: unit not given beside the values; details: G3, 10 mg/kg-QD, 7 days, mean±SD
Protocol: Male wistar rats of 4-5 weeks old were adaptively fed for 5 days, and two days before the experiment, randomly divided into 6 groups:
Blank control group: G1 (Normal), 4 normal rats were selected and only given with 30% ethanol, 10 mL/kg.
0.5 mL of 50 mg/mL DNBS (DNBS dissolved in 30% ethanol) was injected into the colon of rats to induce enteritis in rats, for 40 rats in total. Eight of them were selected as model group G2 (Model), and the remaining 32 rats were administrated.
Administration group: the rats with DNBS induced enteritis were administered with ABT494 and the compound of Example 2 respectively and divided into G3-G6 groups, 8 rats/group. G3: ABT494, 10 mg/kg-QD; G4: Example 2, 0.3 mg/kg-BID; G5: Example 2, 1 mg/kg-BID; and G6: Example 2, 3 mg/kg-BID.
The rats were fasted, but fed with water for 48 hours, and a 5% glucose salt solution (10 mL/kg) was used as an energy supplement for experimental animals during the fasting period, once a day. On the day of experimental modeling, the fasting rats were anesthetized with Choutet (25 mg/kg), and then 0.5 mL of 50 mg/mL DNBS was injected from the anus to left colic flexure of the rat (about 8 cm to the anus) to induce rat enteritis. All rats were kept in a […] for 15 min until they were awaken, to prevent the backflow of DNBS. From the day of the experimental modeling, medication was given for 7 days.
After the DNBS modeling, the weights of the animals were measured and recorded every day, the daily activities of the animals were observed, and the abnormalities were recorded. During the experiment, the stool state of the rats was scored every day. On day 7, the rats were anesthetized with isoflurane (3-5%), blood was taken from the orbit, and the serum was separated and stored at −80° C. All animals were euthanized by cervical vertebra dis location after suffocation from excessive CO2 inhalation. The abdomen was cut, the colorectum was take out and longitudinally dissected, and the stool trait in the colorectum was scored. The colorectum was thoroughly rinsed with ice-cold PBS and then the ulcer surface was observed. The length and weight and ulcer area of the colon were recorded, the weight-length ratio (colon weight (g)/length (cm) ratio×100) was calculated, and the overall picture was taken. All intestinal tissue was longitudinally divided into two parts, where one part was fixed with 4% neutral […] and embedded with paraffin, and the rest colon sample was cryopreserved at −80° C.
Excel and Graphapad software were used for statistical analysis, and the results were expressed as mean±SD.

[2] = system: DSS induced mouse ulcerative colitis model; experiment: Efficacy test in DSS induced mouse ulcerative colitis model; format: in vivo; details: 100 mg/kg group, once a day, mouse DSS model, DAI range 0-4
Source text: Mice of 6-7 weeks old were randomly grouped, 6 mice per group. Purified water was provided ad libitum to the mice in a negative control group, and a 2% solution of dextran sulfate sodium (DSS) was provided ad libitum to the mice in other groups, for 7 consecutive days. During the modeling, medication was given according to the groups, once a day for 7 days (the treatment groups and the mouse numbers can be adjusted according to the specific situation). Within 8-10 days later, the DSS-containing water was replaced with purified water, provided ad libitum to the mice. The normal administration continued for 3 days.
From the first day of administration, the general conditions such as metal state, eating, drinking and activities of the mice were respectively observed every day, the mice were weighed every day, and the animal stools were collected, evaluated for their traits and subjected to the occult blood test. The disease activity index (DAI) of experimental animals within 1-10 days were comprehensively assessed.
Scoring was performed according to the above-mentioned standards. The disease activity index (DAI) of each mouse was obtained by summing the scores of weight loss, stool trait and occult blood condition, to evaluate the disease activity. DAI=(score of weight loss+score of stool trait+score of bloody stool)/3, ranging from 0-4.
The experimental data was processed statistically, and the data are all expressed as mean±SD or mean±SME. The SPSS13.0 software was used for statistical analysis, and the differences among the groups were compared with t test (equal variance) or t′ test (unequal variance).

Sequence of JAK2 (O60674 whole entry): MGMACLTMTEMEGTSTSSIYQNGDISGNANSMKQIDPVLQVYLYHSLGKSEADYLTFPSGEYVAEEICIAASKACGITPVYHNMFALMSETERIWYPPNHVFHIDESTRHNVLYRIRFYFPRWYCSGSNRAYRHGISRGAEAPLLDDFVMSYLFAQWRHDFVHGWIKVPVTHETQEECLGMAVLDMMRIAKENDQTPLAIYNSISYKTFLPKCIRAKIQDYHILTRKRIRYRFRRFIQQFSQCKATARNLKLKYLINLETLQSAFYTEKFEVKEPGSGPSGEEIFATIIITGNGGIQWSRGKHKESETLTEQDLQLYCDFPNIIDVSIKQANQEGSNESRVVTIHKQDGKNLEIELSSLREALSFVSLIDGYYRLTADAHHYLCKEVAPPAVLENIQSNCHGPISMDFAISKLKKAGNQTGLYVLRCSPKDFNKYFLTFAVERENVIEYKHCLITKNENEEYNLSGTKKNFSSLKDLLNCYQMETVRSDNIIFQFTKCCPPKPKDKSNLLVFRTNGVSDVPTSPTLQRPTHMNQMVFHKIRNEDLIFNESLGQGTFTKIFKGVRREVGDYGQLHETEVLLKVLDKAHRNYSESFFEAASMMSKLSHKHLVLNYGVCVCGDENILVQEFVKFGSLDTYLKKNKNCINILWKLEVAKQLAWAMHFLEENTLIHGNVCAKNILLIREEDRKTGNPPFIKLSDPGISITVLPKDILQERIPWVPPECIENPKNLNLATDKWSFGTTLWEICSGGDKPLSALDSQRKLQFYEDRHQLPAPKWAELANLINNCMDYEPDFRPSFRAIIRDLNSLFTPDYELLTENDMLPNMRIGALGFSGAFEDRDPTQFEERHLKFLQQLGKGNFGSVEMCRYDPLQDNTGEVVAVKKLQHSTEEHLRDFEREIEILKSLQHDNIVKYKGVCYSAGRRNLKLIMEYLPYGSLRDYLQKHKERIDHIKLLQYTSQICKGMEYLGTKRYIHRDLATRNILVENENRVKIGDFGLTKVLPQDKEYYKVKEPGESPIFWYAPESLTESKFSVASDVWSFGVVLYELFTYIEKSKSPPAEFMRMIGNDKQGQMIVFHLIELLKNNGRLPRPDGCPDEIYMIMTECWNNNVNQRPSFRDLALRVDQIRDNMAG

SMILES	IC50 (JAK2) [nM]	IC50 (JAK1) [nM]	activity in inhibiting the JAK1 kinase compared with Tofacitinib (in words) (JAK1)	IC50 (JAK3) [nM]	colon weight-length ratio ([1]; colon weight (g)/length (cm) ratio×100, model group G2 14.6±5.1)	rat colon ulcer area ([1]; model group G2 1.54±2.00)	DAI score on day 8 [2]
CNC(=O)c1cnc2[nH]ccc2c1NN1CCC[C@H](C(=O)NCC(F)(F)F)C1 [Example 23]	18.8	0.64	higher activity in inhibiting the JAK1 kinase than the positive drug control Tofacitinib	6.54	–	–	–
NC(=O)c1cnc2[nH]ccc2c1NN1C2CCC1COC2 [Example 10, 4-((3-oxa-8-azabicyclo[3.2.1]octan-8-yl)amino)-1H-7-azaindole-5-carboxamide]	–	51.9	–	–	–	–	–
CNC(=O)c1cnc2[nH]ccc2c1NN1CCC[C@H](C(=O)NCC(F)F)C1 [Example 22, (S)-4-((3-((2,2-difluoroethyl)carbamoyl)piperidin-1-yl)amino)-N-methyl-1H-7-pyrrolo[2,3-b]pyridine-5-carboxamide]	137	35.9	–	103	–	–	–
CN(c1ccnc2[nH]ccc12)N1CCCC(C(=O)NCC(F)(F)F)C1 (stereo not shown) [WO2016116025 WX15, reference compound]	297	17.3	–	104	–	–	–
NC(=O)c1cnc2[nH]ccc2c1NN1[C@@H]2CC[C@H]1C[C@@H](O)C2 [Example 11, 4-((3-hydroxyl-8-azabicyclo[3.2.1]octan-8-yl)amino)-1H-7-azaindole-5-carboxamide]	211	11.7	–	15.5	–	–	–
NC(=O)c1cnc2[nH]ccc2c1NN1CCC[C@H](C(=O)NC2CC2)C1 [Example 6, (S)-4-(3-(cyclopropylcarbamoyl)piperidine-1-amino)-1H-7-azaindole-5-carboxamide]	44.6	1.06	–	21.7	–	–	–
CC[C@@H]1CN(C(=O)NCC(F)(F)F)C[C@@H]1c1cnc2cnc3[nH]ccc3n12 [ABT494, reference compound]	–	–	–	–	13.4±5.2	1.37±1.72	–
NC(=O)c1cnc2[nH]ccc2c1NN1CCC(C(=O)NCC(F)(F)F)CC1 [Example 19, 4-(4-(2,2,2-trifluoroethylcarbamoyl)piperidine-1-amino)-1H-7-azaindole-5-carboxamide]	353	24	–	21.4	–	–	–
CC1CCC(C(=O)NCC(F)(F)F)CN1Nc1c(C(N)=O)cnc2[nH]ccc12 (stereo not shown) [Example 16, 4-(2-methyl-5-(2,2,2-trifluoroethylcarbamoyl)piperidine-1-amino)-1H-7-azaindole-5-carboxamide]	41.2	1.15	–	9	–	–	–
NC(=O)c1cnc2[nH]ccc2c1NN1CCC[C@@H](C(=O)NCC(F)F)C1 [Example 4, (R)-4-(3-(2,2-difluoroethylcarbamoyl)piperidine-1-amino)-1H-7-azaindole-5-carboxamide]	522	34.3	–	224	–	–	–
Nc1ccc(O)c(C(=O)O)c1 [mesalazine, reference compound]	–	–	–	–	–	–	3.5
NC(=O)c1cnc2[nH]ccc2c1NN1CCC2(CCNC2=O)CC1 [Example 14, 4-(1-keto-2,8-diazaspiro[4.5]decane-8-amino)-1H-7-azaindole-5-carboxamide]	–	78.3	–	–	–	–	–
NC(=O)c1cnc2[nH]ccc2c1NN1CCC(C(=O)NCC(F)(F)F)C1 (stereo not shown) [Example 9]	42.5	0.66	higher activity in inhibiting the JAK1 kinase than the positive drug control Tofacitinib	7.85	–	–	–
CCOC(=O)[C@H]1CCCN(Nc2c(C(N)=O)cnc3[nH]ccc23)C1 [Example 8]	46.5	2.03	–	8.67	–	–	–
CN(c1ccnc2[nH]ccc12)N1CCCC(C(=O)NCC#N)C1 (stereo not shown) [WO2016116025 WX14, reference compound]	126	19.7	–	68.9	–	–	–
